# Source: US6376430B1, “Enhancement of seed yield of soybeans by a substituted benzoyl urea” (Uniroyal Chemical Company, Inc., priority 1997, dated 2002)
# How the values were obtained:
# soybean = details: cited from earlier work
# indeterminate soybeans = experiment: Field applications on northern indeterminate soybean varieties (25 sites), seed yield, pod counts, seed size; type: in vivo
# Source text: Diflubenzuron alone gave a 376 kg/ha (5.6 bu/acre) increase over the untreated control; the addition of Benomyl (methyl-1-(butylcarbamoyl)-2-benzamidazolecarbamate) only conferred another 0.5 bushel increase. There were no reported foliar feeding insect infestations of significance in any of the trials.
# This is a similar % increase to the increased seed yields found in Table 3. […] Thus Diflubenzuron may be more consistent than TIBA in generating soybean seed yield increases since Diflubenzuron is not visually altering the carbon fixation pool of the plant.
# determinate soybeans = experiment: Field applications on determinate soybeans (29 site data base), seed yield; type: in vivo, soybean; details: for determinate soybean yields: Diflubenzuron 0.035 kg/ha, BENLATE 0.56 to 0.84 kg/ha, applied from R2 through R5 growth stages, untreated control 2190 kg/ha; for yield increase over the untreated control: one or two field applications of Diflubenzuron at 0.034 kg ai/ha, 29 sites, determinate soybeans
# Source text: In this invention, Diflubenzuron is typically sprayed during the period from R2 through R5 for controlling foliar feeding insects. In the States of Mississippi, Florida, Tennessee, Illinois, Arkansas, Louisiana, and Texas results have been compiled where one or two field applications of Diflubenzuron at 0.034 kg ai/ha (0.031 lb ai/acre) were applied to control insects on the determinate soybeans planted. A fungicide, Benomyl, methyl-1-(butylcarbamoyl)-2-benzamidazolecarbamate [CAS 17804-35-2], available as BENLATE™ from DuPont deNemour, Wilmington, Del., was also applied alone or in combination with Diflubenzuron for fungal pathogen control.
SMILES,"total seed number per plant (soybean; literature (Bauer et al., 1969; Burton and Curley, 1966; Hicks et al., 1967))","seed yield (soybean; literature, smaller seeds were formed)",visual alteration of the soybean plant canopy (indeterminate soybeans; any research trial),seed size variation across varieties (indeterminate soybeans; no correlation to application time of Diflubenzuron) [%],"pod counts from plants, higher in relation to the untreated control (indeterminate soybeans; preliminary results, indeterminate soybean trials)",determinate soybean yields (determinate soybeans) [kg/ha],yield increase over the untreated control (determinate soybeans) [bushels/acre]
"O=C(O)c1cc(I)cc(I)c1I [TIBA, 2,3,5-triiodobenzoic acid]",increase,no corresponding increase,,,,,
"O=C(NC(=O)c1c(F)cccc1F)Nc1ccc(Cl)cc1 [Diflubenzuron, N-(2,6-difluorobenzoyl)-N′-(4-chlorophenyl)urea]",,,has not been noted,~2,approximately 16%,2378,2.8
"CCCCNC(=O)n1c(NC(=O)OC)nc2ccccc21 [Benomyl, methyl-1-(butylcarbamoyl)-2-benzamidazolecarbamate]",,,,,,2439,3.7
